Literature values, collected in patent US20240398820A1, “METHODS FOR TREATMENT OF PULMONARY HYPERTENSION” (Respira Therapeutics, Inc., priority 2023, published 2024).

Experiments:
[1] = in vivo
[2] = inhaled, following pulmonary administration
[3] = human patients with PAH, 5 mg orally twice per day

## CCCc1nc(C)c2c(=O)nc(-c3cc(S(=O)(=O)N4CCN(CC)CC4)ccc3OCC)[nH]n12 [Vardenafil, 1-[[3-(1,4-dihydro-5-methyl-4-oxo-7-propylimidazo[5,1-f][1,2,4]triazin-2-yl)-4-ethoxyphenyl]sulfonyl]-4-ethyl-piperazine]
[1]
  clearance: rapid clearance
other
  dissociation rate: slow dissociation rate
[2]
  tmax: ≤ 2 min
[3]
  safety and efficacy in PAH: safe and effective
